Earlier results, collected in US20220001038A1, “CONJUGATES FOR DETECTION OF AXILLARY LYMPH NODE METASTASES” (H. LEE MOFFITT CANCER CENTER AND RESEARCH INSTITUTE, INC., priority 2017, published 2022).

Test system: hCA IX and XII

Compound: [N-]=[N+]=NCCCCCCOc1ccc(-c2nn(-c3ccccc3)cc2-c2nc3ccccc3[nH]2)cc1 [compound 6]
- affinity/selectivity for CAIX and CAXII (in words): inhibitor with hCA IX and XII selectivity
